Measurements as given in patent US20080269248A1, “Tartrate and Malate Salts of Trans-1-((1R,3S)-6-Chloro-3-Phenylindan-1-Yl)-3,3-Dimethylpiperazine” (H. Lundbeck A/S, priority 2005, published 2008).

What was measured:
solubility of the salts = assay type: physicochemical
[1] = test system: pigs sensitized to haloperidol; assay: dystonia in pigs sensitized to haloperidol; assay type: in vivo
[2] = target: dopamine (DA) D1 receptors (Homo sapiens, UniProt P21728); conditions: as described in PCT/DK04/000546; cited from earlier work
DA D2 receptors = DA D2 receptors (Homo sapiens, UniProt P14416); conditions: as described in PCT/DK04/000546; cited from earlier work
alfal adrenoceptors = conditions: as described in PCT/DK04/000546; cited from earlier work
dopamine D1 receptors = dopamine D1 receptors (Homo sapiens, UniProt P21728); conditions: as described in PCT/DK04/000546; cited from earlier work
dopamine D2 receptors = dopamine D2 receptors (Homo sapiens, UniProt P14416); conditions: as described in PCT/DK04/000546; cited from earlier work
[3] = target: serotonin 5-HT2a receptors (Homo sapiens, UniProt P28223); conditions: as described in PCT/DK04/000546; cited from earlier work
CYP2D6 = CYP2D6 (Homo sapiens, UniProt P10635); conditions: as described in PCT/DK04/000546; cited from earlier work
[4] = rabbit model; as described in PCT/DK04/000546; cited from earlier work

Sequence of serotonin 5-HT2a receptors (P28223 whole entry): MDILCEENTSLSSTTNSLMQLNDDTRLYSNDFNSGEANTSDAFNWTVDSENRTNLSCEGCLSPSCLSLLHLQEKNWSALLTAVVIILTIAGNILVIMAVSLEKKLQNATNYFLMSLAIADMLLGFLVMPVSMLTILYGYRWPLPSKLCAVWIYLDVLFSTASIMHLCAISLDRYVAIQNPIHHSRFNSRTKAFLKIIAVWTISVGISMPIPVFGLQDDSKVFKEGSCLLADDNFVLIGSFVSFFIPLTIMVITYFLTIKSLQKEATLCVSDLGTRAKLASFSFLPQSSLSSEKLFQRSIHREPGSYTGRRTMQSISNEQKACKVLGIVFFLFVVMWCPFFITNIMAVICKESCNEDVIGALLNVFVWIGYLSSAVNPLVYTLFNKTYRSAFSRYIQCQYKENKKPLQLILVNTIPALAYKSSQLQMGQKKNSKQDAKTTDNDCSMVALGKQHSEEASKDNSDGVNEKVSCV
Sequence of CYP2D6 (P10635 whole entry): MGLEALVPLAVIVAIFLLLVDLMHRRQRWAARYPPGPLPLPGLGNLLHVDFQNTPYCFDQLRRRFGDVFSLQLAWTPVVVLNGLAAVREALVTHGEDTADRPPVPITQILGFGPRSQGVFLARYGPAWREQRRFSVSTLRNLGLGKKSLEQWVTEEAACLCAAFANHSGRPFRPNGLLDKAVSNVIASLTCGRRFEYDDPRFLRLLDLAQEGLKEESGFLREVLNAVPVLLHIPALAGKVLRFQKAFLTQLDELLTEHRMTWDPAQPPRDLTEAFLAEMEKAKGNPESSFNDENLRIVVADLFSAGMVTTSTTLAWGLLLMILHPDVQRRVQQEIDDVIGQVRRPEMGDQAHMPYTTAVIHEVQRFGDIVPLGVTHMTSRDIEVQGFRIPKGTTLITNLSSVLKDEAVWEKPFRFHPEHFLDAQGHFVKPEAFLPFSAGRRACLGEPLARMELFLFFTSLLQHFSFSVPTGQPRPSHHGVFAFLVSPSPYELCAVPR
Sequence of dopamine (DA) D1 receptors (P21728 whole entry): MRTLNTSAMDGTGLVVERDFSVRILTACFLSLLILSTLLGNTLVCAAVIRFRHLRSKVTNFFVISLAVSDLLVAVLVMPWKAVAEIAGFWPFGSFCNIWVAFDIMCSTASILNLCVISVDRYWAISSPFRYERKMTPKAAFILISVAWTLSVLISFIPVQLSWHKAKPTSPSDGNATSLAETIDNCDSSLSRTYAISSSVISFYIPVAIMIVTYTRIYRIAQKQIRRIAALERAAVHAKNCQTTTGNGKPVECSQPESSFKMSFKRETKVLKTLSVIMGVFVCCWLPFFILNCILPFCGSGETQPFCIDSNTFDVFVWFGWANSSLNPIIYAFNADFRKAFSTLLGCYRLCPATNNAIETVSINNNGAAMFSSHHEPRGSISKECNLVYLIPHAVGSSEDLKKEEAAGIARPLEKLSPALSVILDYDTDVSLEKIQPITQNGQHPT
Sequence of dopamine D1 receptors (P21728 whole entry): as above
Sequence of DA D2 receptors (P14416 whole entry): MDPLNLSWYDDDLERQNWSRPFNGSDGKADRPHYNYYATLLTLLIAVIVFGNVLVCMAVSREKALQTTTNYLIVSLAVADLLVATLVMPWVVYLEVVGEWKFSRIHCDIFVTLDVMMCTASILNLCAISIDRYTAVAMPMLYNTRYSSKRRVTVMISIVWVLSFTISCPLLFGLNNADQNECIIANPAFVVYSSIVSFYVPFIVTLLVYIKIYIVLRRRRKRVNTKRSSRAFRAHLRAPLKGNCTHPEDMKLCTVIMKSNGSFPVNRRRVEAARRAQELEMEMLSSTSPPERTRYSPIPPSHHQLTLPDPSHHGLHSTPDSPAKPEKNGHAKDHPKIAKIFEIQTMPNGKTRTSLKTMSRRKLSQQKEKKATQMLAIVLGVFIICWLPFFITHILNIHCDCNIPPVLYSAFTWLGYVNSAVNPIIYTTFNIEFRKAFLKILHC
Sequence of dopamine D2 receptors (P14416 whole entry): as above

SMILES	solubility (solubility of the salts) [µg/mL]	induction of dystonia (EPS liability) [1]	affinity for dopamine (DA) D1 receptors [2]	affinity for DA D2 receptors (DA D2 receptors)	affinity for alfal adrenoceptors (alfal adrenoceptors)	functional activity at dopamine D1 receptors (dopamine D1 receptors)	functional activity at dopamine D2 receptors (dopamine D2 receptors)	functional activity at serotonin 5-HT2a receptors [3]	inhibition of CYP2D6 (CYP2D6)	effect on the QT interval [4]
CC1(C)CN([C@@H]2C[C@@H](c3ccccc3)c3ccc(Cl)cc32)CCN1.CC1(C)CN([C@@H]2C[C@@H](c3ccccc3)c3ccc(Cl)cc32)CCN1.O=C(O)C[C@H](O)C(=O)O (relative stereo) [malate salt, trans-1-((1R,3S)-6-chloro-3-phenylindan-1-yl)-3,3-dimethylpiperazinium L-malate]	800									
CC1(C)CN([C@@H]2C[C@@H](c3ccccc3)c3ccc(Cl)cc32)CCN1 [Compound I, trans-1-((1R,3S)-6-chloro-3-phenylindan-1-yl)-3,3-dimethylpiperazine]		did not induce dystonia	high affinity	high affinity	high affinity	antagonist	antagonist	antagonist	relatively weak inhibitor	relatively low effect
